Columns and labels:
[1] = tested on: rat models sufferring from diabetes (STZ); assay: In vivo long-acting activity assay of insulin derivatives; design: species or system Sprague-Dawley (SD) rats; conditions: s.c., Humulin R 0.04, Detemir 0.2, others 0.1 mg/kg
Method: The rats were fed in an environment of SPF level. […] 100 mg/kg STZ was intraperitoneally injected to establish rat models sufferring from diabetes. Two days later, fasting blood glucose values were measured. […] At the beginning of the experiment, rats were weigh, and the blood glucose levels were measured (cut off tails and the blood glucose levels were detected by using Roche Glucometer and the corresponding test strips, similarly hereafter). On the basis of blood glucose values, rats were randomly divided into groups, 43 rats per group. The drug to be used was prepared in required concentrations. After subcutaneous injection of drugs, blood glucose levels were measured at multiple time points. IP (Index of Prolongation) was calculated according to blood glucose level.

[2] = tested on: rat models sufferring from diabetes (STZ); assay: In vivo long-acting activity assay of PEGylated insulin; design: species or system Sprague-Dawley (SD) rats; conditions: for Blood glucose value (%): Humulin R 0.04, Detemir 0.2, PEG insulins 0.1 mg/kg; for AOC % / IP (Index of Prolongation): s.c.
Method: Sprague-Dawley (SD) rats, male, used in this experiment were purchased from SINO-BRITSH SIPPR/BK LAB. ANIMAL LTD., CO, License number: SCXK (Shanghai) 2008-0016, 18-20 g. The rats were fed in an environment of SPF level. ICR male mice were fed three days in a laboratory environment, at temperature of 20-25° C., and humidity of 40-60%. The mice were fasted for 8 hrs before the experiment. 100 mg/kg STZ was intraperitoneally injected to establish rat models sufferring from diabetes. Two days later, fasting blood glucose values were measured. […] At the beginning of the experiment, rats were weigh, and the blood glucose levels were measured (cut off tails and the blood glucose levels were detected by using Roche Glucometer and the corresponding test strips, similarly hereafter). On the basis of blood glucose values, rats were randomly divided into groups, 43 rats per group. The drug to be used was prepared in required concentrations. After subcutaneous injection of drugs, blood glucose levels were measured at multiple time points. IP (Index of Prolongation) was calculated according to blood glucose level.

[3] = Table 5, Humulin R 0.04, Detemir 0.2, PEG (20 kD) insulins 0.1 mg/kg
[4] = Table 6, Humulin R 0.04, Detemir 0.2, PEG (30/40 kD) insulins 0.1 mg/kg

Substance: Detemir
- Blood glucose level (%) ([1]; 0 h): 100.00%
- Blood glucose level (%) ([1]; 0.5 h): 72.21%
- Blood glucose level (%) ([1]; 1 h): 35.57%
- Blood glucose level (%) ([1]; 2 h): 14.45%
- Blood glucose level (%) ([1]; 4 h): 16.32%
- Blood glucose level (%) ([1]; 6 h): 23.80%
- Blood glucose level (%) ([1]; 8 h): 34.77%
- Blood glucose level (%) ([1]; 10 h): 51.42%
- Blood glucose level (%) ([1]; 12 h): 39.68%
- Blood glucose level (%) ([1]; 14 h): 58.06%
- Blood glucose level (%) ([1]; 16 h): 74.84%
- Blood glucose level (%) ([1]; 18 h): 91.67%
- Blood glucose level (%) ([1]; 20 h): 99.05%
- AOC [1]: 69.2
- IP (Index of Prolongation) [1]: 100
- Blood glucose value (%) ([2]; Table 5, 0 h): 100%
- Blood glucose value (%) ([2]; Table 5, 1 h): 96.63%
- Blood glucose value (%) ([2]; Table 5, 2 h): 57.24%
- Blood glucose value (%) ([2]; Table 5, 4 h): 32.49%
- Blood glucose value (%) ([2]; Table 5, 6 h): 40.98%
- Blood glucose value (%) ([2]; Table 5, 8 h): 86.94%
- Blood glucose value (%) ([2]; Table 5, 10 h): 112.66%
- Blood glucose value (%) ([2]; Table 5, 12 h): 127.52%
- AOC % [2, 3]: 7.39%
- IP (Index of Prolongation) [2, 3]: 100
- AOC % [2, 4]: 5.92%
- IP (Index of Prolongation) [2, 4]: 100
- Blood glucose value (%) ([2]; Table 6, time 0): 100.00%
- Blood glucose value (%) ([2]; Table 6, time 1): 104.15%
- Blood glucose value (%) ([2]; Table 6, time 2): 74.83%
- Blood glucose value (%) ([2]; Table 6, time 3): 46.46%
- Blood glucose value (%) ([2]; Table 6, time 4): 23.36%
- Blood glucose value (%) ([2]; Table 6, time 6): 17.11%
- Blood glucose value (%) ([2]; Table 6, time 8): 32.52%
- Blood glucose value (%) ([2]; Table 6, time 10): 94.89%
- Blood glucose value (%) ([2]; Table 6, time 12): 110.45%

Reference: patent publication US9458219B2, “Human insulin analogue and acylated derivative thereof” (Shanghai Hengrui Pharmaceutical Co., Ltd., priority 2011, dated 2016)
